According to US20080057071A1, “Use Of Hedgehog Pathway Inhibitors In Small-Cell Lung Cancer” (priority 2003, published 2008):

How the values were obtained:
Type in all cases: cell-based, human
NCI-H157 NSCLC cells = experiment: Cell growth of NCI-H157 NSCLC cells (MTT assay); settings: 5 days, FIG. 3c
Protocol: (§1) MTT assays were performed as described (Sriuranpong (2002), supra).

NCI-H249 SCLC cells [1] = experiment: Cell growth of NCI-H249 SCLC cells (MTT assay); settings: for cell growth after compound treatment: NCI-H249 SCLC cells, 5 days, FIG. 3b
Protocol: as §1

Ptch mRNA = Ptch mRNA expression by northern blot analysis; settings: NCI-H249 SCLC cells, FIG. 3g
NCI-H249 SCLC cells [2] = experiment: Soft agar clonogenicity of NCI-H249 SCLC cells; settings: FIG. 4a, b
NCI-H249 SCLC cells [3] = experiment: Cleaved PARP expression (apoptosis) by immunoblot; settings: 5 μM, 72 h, FIG. 3f
Protocol: Whole-cell lysates were sonicated in 2% SDS/50 mM TrisHCl, pH 8. […] Anti-cleaved PARP was obtained from Promega.

NCI-H249 SCLC cells [4] = experiment: Cell cycle analysis in NCI-H249 cells; settings: unsynchronized NCI-H249 SCLC cells; 5 μM; 72 h; FIG. 3e
[5] = test system: BMP4, nestin and ASH-1 transcripts; experiment: RT-PCR analysis of transcripts in NCI-H249 SCLC cells; settings: 48 h, FIG. 3h
Protocol: Total cellular RNA was treated with DNAse, reverse transcribed, and amplified for 31 cycles at an annealing temperature of 55° C. Primers used were: […]

| SMILES | cell growth after compound treatment (NCI-H157 NSCLC cells) | cell growth after compound treatment (NCI-H249 SCLC cells [1]) | growth inhibition by cyclopamine in cells stably expressing Flag-tagged GLI-1 (NCI-H249 SCLC cells [1]; NCI-H249 SCLC cells stably transfected with Flag-Gli1, MTT, FIG. 3d) | growth inhibition by cyclopamine in cells expressing GLI-1 mutant lacking the zinc finger DNA-binding domain (NCI-H249 SCLC cells [1]; NCI-H249 SCLC cells stably transfected with Flag-Gli1ZFD, MTT, FIG. 3d) | Ptch mRNA expression (Ptch mRNA) | soft agar clonogenicity effect in cells overexpressing GLI-1 (NCI-H249 SCLC cells [2]; NCI-H249 SCLC cells stably transfected with Flag-Gli1, cyclopamine 5 μM) | soft agar clonogenicity (NCI-H249 SCLC cells [2]; NCI-H249 SCLC cells) | apoptosis (cleaved PARP) (NCI-H249 SCLC cells [3]) | cell cycle effect (NCI-H249 SCLC cells [4]) | BMP4 expression [5] | human ASH-1 expression [5] | nestin expression [5] |
| --- | --- | --- | --- | --- | --- | --- | --- | --- | --- | --- | --- | --- |
| CC1=C2C[C@H]3[C@@H](CC=C4CC(=O)CC[C@@]43C)[C@@H]2CC[C@]12O[C@@H]1C[C@H](C)CN(CCNC(=O)CCCCCNC(=O)CCc3ccccc3)[C@H]1[C@H]2C [KAAD-cyclopamine] | None of KAAD-cyclopamine, cyclopamine or tomatidine was able to affect growth | significant growth inhibition | – | – | – | – | – | – | – | – | – | – |
| CC1=C2C[C@H]3[C@@H](CC=C4C[C@@H](O)CC[C@@]43C)[C@@H]2CC[C@]12O[C@@H]1C[C@H](C)CN[C@H]1[C@H]2C [cyclopamine] | – | – | protected NCI-H249 SCLC cells from growth inhibition | had no effect | downregulation | reversed | reduced soft agar clonogenicity | increase in cleaved PARP | arrest of the cell cycle in Go/G1 | inhibited expression | inhibited expression | inhibited expression |
| C[C@H]1CC[C@]2(NC1)O[C@H]1C[C@H]3[C@@H]4CC[C@H]5C[C@@H](O)CC[C@]5(C)[C@H]4CC[C@]3(C)[C@H]1[C@@H]2C [tomatidine] | None of KAAD-cyclopamine, cyclopamine or tomatidine was able to affect growth | no effect | – | – | – | – | – | – | – | – | – | – |
